Experiments:
KB tumors = assay type: in vivo; conditions: KB tumored nude mice, dosed at 8 mg/kg cisplatin
[1] = test system: A427 human NSCLC xenografts; conditions: single treatment, 14 days post injection, equivalent cisplatin levels
[2] = mouse KB tumor model

## N.N.[Cl][Pt][Cl] [Cisplatin, (SP-4-2)-diamminedichloridoplatinum (II)]
KB tumors
  peak tumor DNA/Pt adduct: less than 10 pg of Pt/μg of DNA
[1]
  tumor growth inhibition: 30%
[2]
  maximum tolerated dose (MTD): less than 10 mg/kg

— patent publication US10383823B2 (Mallinckrodt LLC, priority 2013, dated 2019)
